Values of other authors, collected in EP1649859A1, “Pharmaceutical compositions comprising at least one poorly diffusible anticancer drug and a olidodeoxynucleotide immunestimulant” (Institut Gustave Roussy, priority 2004, dated 2006).

Conditions: bléomycine seule à des doses sub-thérapeutiques

For bléomycine, the activité antitumorale propre is listed as “ne possèdent pas d'activité antitumorale propre”.
